In US20150329918A1, “JAGGED1 AS A MARKER AND THERAPEUTIC TARGET FOR BREAST CANCER BONE METASTASIS” (The Trustees of Princeton University, priority 2011, published 2015):

Experiments:
[1] = test system: Notch target genes and IL-6; test: Species-specific qRT-PCR of the stromal compartment of bone metastases; assay type: in vivo; details: mouse-specific qRT-PCR; FIG. 17A
Protocol: (§1) RNA from in vitro cultured cells or flow cytometry-separated cells was collected in RLT lysis buffer and extracted with RNeasy mini kit (Qiagen). RNA extraction from in vivo tissue samples was performed using Trizol (Invitrogen) according to the manufacturer's protocol. cDNA synthesis of RNA was performed using Superscript III First-Strand (Invitrogen). Quantitative RT-PCR was performed using Power Syber Green PCR Master Mix (Applied Biosystems) with the ABI Prism 7900HT thermocycler (Applied Biosystems) according to the manufacturer's protocol. A standard curve for each gene was generated by serial dilutions of a standard. Values were then normalized by the amount of GAPDH or β-actin in each sample. For in vivo samples, species-specific primers were employed for gene expression analysis in the tumor compartment (human) versus stroma compartment (mouse).

Notch = details: Tammam et al., 2009; cited from earlier work
[2] = LoRusso et al, AACR 2009; cited from earlier work
Notch reporter = Notch reporter assay in MC3T3-E1 osteoblasts cocultured with JAG1 OE tumor cells; assay type: cell-based, mouse; details: 6-fold increase induced by JAG1 OE tumor cell coculture; FIG. 7A
Protocol: For transfection experiments, MC3T3-E1 osteoblasts were seeded at 2×10^5 cells/well in 12-well plates and grown to 95% confluence. For reporter assays, the firefly luciferase Notchreporter (Zeng et al., 2005, which is incorporated herein by reference as if fully set forth) and cytomegalovirus (CMV)-Renilla luciferase control (Promega) plasmids were transfected using Lipofectamine 2000 at concentrations designated by the manufacturer's instructions. After 4 hours, the transfection media was changed to regular media containing 1×10^5 vector control or JAG1 OE tumor cells per well and plated in triplicate in the presence of DMSO or MRK-003. Following 2 days, the coculture was lysed and subjected to a luciferase assay in which firefly counts (Notch reporter activity) was divided by renilla counts to normalize for transfection efficiency. For siRNA transfection experiments, a scrambled control siRNA or two distinct targeting siRNAs against Rbpj #1-[…] [SEQ ID NO: 6] and #2-[…] [SEQ ID NO: 7] or Hey1 #1-[…] [SEQ ID NO: 8] and #2-[…] [SEQ ID NO: 9] […] Following 6 days, the coculture was lysed and subjected to a luciferase assay to selectively quantify the number of tumor cells. For gene expression analysis, RNA from cocultures was collected in RLT lysis buffer, extracted with RNeasy mini kit (Qiagen), and subjected to quantitative RT-PCR.

[3] = test system: pre-osteoclast Raw 264.7 cells; test: Osteoclastogenesis coculture assay (TRAP staining); assay type: cell-based, mouse
Protocol: After seeding 5×10^4 control or JAG1 OE tumor cells/well into 12-well plates, murine pre-osteoclast Raw 264.7 (2×10^5 cells/well) or MOCP5 (5×10^5 cells/well) cells in media containing 30 ng/ml RANKL and DMSO or 1 μM MRK-003 were added the next day. Media were changed every 2 days. TRAP staining was performed on day 6 using a leukocyte acid phosphatase kit (Sigma). TRAP^+-multinucleated cells were scored as mature osteoclasts. The number of nuclei per osteoclast was quantified using TRAP-stained images. Mouse specific qRT-PCR primers were used to selectively quantify Raw264.7 osteoclast gene expression levels after 6 days of coculture (see Table 1 below).
For primary osteoclast coculture assays, bone marrow cells were flushed out from femora and tibiae of 4- to 6-week-old wild-type FVB mice and plated in basal culture medium overnight. The next day, nonadherent cells were added at 1×10^6/well to 12-well plates that were previously seeded with either control or JAG1 OE tumor cells supplemented with 50 ng/ml RANKL and 50 ng/ml M-CSF. Medium was changed every 3 days. TRAP staining and scoring were performed on days 10-12.

[4] = test system: primary mammary tumors of MDA231 sublines; test: Orthotopic primary mammary tumor xenograft; details: mouse, in vivo
Protocol: For bone metastsis studies, 10^5 tumor cells were injected into the left cardiac ventricle of anesthetized female athymic Ncr-nu/nu or BALB/c mice. Development of metastases was monitored by BLI. Bioluminescence images were acquired with a Xenogen IVIS 200 Imaging System. Analysis was performed with Living Image software by measuring photon flux in the hindlimbs of mice. Data were normalized to the signal on day 7. Bone metastasis-free survival curves represent the time point at which each mouse developed bone metastasis by threshold BLI signals in the hindlimbs. For the orthotopic xenograft model, mammary fat pad injections and primary tumor size measurements were performed following the procedure described previously (Minn et al., 2005, which is incorporated herein by reference as if fully set forth).
MRK-003 is a potent and specific gamma-secretase inhibitor whose biochemical, cellular and pharmacological properties have been extensively studied and reported. MRK-003 is a cyclic sulfamide with sub-nanomolar potency inhibiting gamma-secretase-mediated cleavage of Notch to its active form (NICD) (Lewis et al., 2007, which is incorporated herein by reference as if fully set forth). […] For xenograft experiments, mice were administered the vehicle (0.5% methylcellulose) or MRK-003 by oral gavage twice a week at a 100 mg/kg dosage. The dosing schedule was 2-days on, 5-days off. […]

[5] = test system: Notch target genes (Hes1, Hey1, HeyL and TGFβ1); test: qRT-PCR of Notch target genes in MC3T3-E1 osteoblasts FACS-separated from cocultures; assay type: cell-based, mouse; details: osteoblasts FACS-separated from JAG1 OE coculture; FIG. 7B
Protocol: For gene expression analysis, MC3T3-E1 cells were grown to confluence in 10 cm culture dishes. The 2×10^5 GFP+ control or JAG1 OE cells were seeded onto the plate in osteoblast media. Cell sorting was performed to purify the GFP-negative MC3T3-E1 osteoblasts 5 days after initial coculture. RNA from FACS-separated MC3T3-E1 cells was collected in RLT lysis buffer, extracted with RNeasy Mini Kit (QIAGEN), and subjected to quantitative RT-PCR.
as §1

Structure (SMILES): O=S1(=O)N[C@@]2(CN1CC(F)(F)F)[C@@H]1CC[C@H]2Cc2ccc(/C=C/CN3CCC(C(F)(F)F)CC3)cc2C1 [MRK-003]
- expression levels of Notch target genes and IL-6 in the stromal compartment of bone metastases [1]: significantly reduced
- duration of target engagement sufficient to induce potent Notch inhibition (Notch): 48 h
- clinical responses with once-weekly dosing [2]: strong clinical responses
- tolerability of once-weekly dosing in the clinic [2]: well-tolerated
- Notch activity (Notch reporter) (Notch reporter): abolished
- TRAP+ osteoclasts in JAG1 OE cocultures ([3]; 15-fold increase by JAG1 OE relative to controls, 1 μM MRK-003, FIG. 15A): essentially abolished
- mRNA expression of osteoclast differentiation markers in Raw 264.7 cells ([3]; JAG1 OE cocultures): suppressed
- osteoclast size and number of nuclei ([3]; cocultures with Raw 264.7, FIG. 15C): smaller osteoclasts with fewer nuclei
- Acp5 (mouse gene encoding TRAP) mRNA levels, delayed initiation of treatment (Late) ([3]; treatment 2 days after seeding, FIG. 15B): failed to fully rescue
- growth rate of primary mammary tumors [4]: not altered
- primary tumor xenografts of MDA231 sublines, control vs treated [4]: no difference
- Notch target genes (Hes1, Hey1, HeyL and TGFβ1) mRNA in osteoblasts [5]: downregulated
